Common to all, as to assay: biochemical
Type in all cases: binding

Assay [1] deals with HLA-DR DRB1*1501 (DR15) (Homo sapiens, UniProt P01903+P01911). As to conditions: DRBI *1501.
Assay [2] deals with HLA-DR DRB1*0701 (DR7) (Homo sapiens, UniProt P01903+P01911, A100R/A102G/A103Q/D57E/D86V/E43K/F76Y/K127E/L162R/M171V/P40G/Q125H/Q99D/R33Q/R42Y/R54Q/S133A/S66F/T210M/V115G/Y107V/Y59L/Y89S). As to conditions: DRB1 *0701.
Assay [3] deals with HLA-DR DRB1*0401 (DR4) (Homo sapiens, UniProt P01903+P01911, A100K/A169T/F76Y/I96L/K127E/L162R/M171V/N62H/P40V/Q125Y/R42H/S133A/S149N/S66Y/V115G/V209L/W38E). As to conditions: DRB1 *0401.
The target in assay [4] is HLA-DR DRB3*0101 (DR52) (Homo sapiens, UniProt P01903+P79483).
The target of assay [5] is HLA-DR DRB1*1101 (DR11) (Homo sapiens, UniProt P01903+P01911, A100R/A169T/A87E/I96F/K41T/L162R/M171V/P40S/Q125H/Q178H/Q39Y/Q99D/R42S/S66Y/T262R/V115G/W38E). As to conditions: DRB1 *1101.
Sequence of HLA-DR DRB1*1101 (DR11) (P01903 26-254 limits assumed, other chains not shown): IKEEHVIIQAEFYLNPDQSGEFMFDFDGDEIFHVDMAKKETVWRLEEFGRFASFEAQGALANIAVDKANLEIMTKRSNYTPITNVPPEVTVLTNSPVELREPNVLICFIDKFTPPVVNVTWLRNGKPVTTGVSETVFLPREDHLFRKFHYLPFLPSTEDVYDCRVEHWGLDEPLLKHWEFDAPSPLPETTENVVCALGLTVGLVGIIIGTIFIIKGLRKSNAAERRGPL
Assay [6] deals with HLA-DR DRB5*0101 (DR51) (Homo sapiens, UniProt P01903+Q30154). As to conditions: DRB5 *0101.
Assay [7] concerns the target HLA-DR DRB1*0901 (DR9) (Homo sapiens, UniProt P01903+P01911, A100R/A103E/D57H/D86V/F55Y/F60I/F76Y/I96F/K127E/L162R/M171V/P40D/Q125H/Q99R/R33Q/R42F/S133A/S66N/T210M/V115G/W38K/Y107V/Y59G/Y89S). As to conditions: DRB1 *0901.
For assay [8], the target named is HLA-DR DRB1*0802 (DR8) (Homo sapiens, UniProt P01903+P01911, A100R/A103L/A169T/F76Y/H45Y/I96F/K41T/L162R/M171V/P40S/Q125H/Q178H/Q39Y/Q99D/R218S/R42G/S66Y/V115G/W38E).
Assay [9] concerns the target HLA-DR DRB4*0101 (DR53) (Homo sapiens, UniProt P01903+P13762, G164S). As to conditions: DRB4 *0101.
Assay [10] deals with HLA-DR DRB1*1302 (DR13) (Homo sapiens, UniProt P01903+P01911, A100E/A169T/K41T/L162R/M171V/P40S/Q125H/Q178H/Q39Y/Q99D/R42S/S66N/T262R/V115G/W38E/Y61H). As to conditions: DRBI *1302.
Sequence of HLA-DR DRB1*1302 (DR13) (P01903 26-254 limits assumed, other chains not shown): as above
Assay [11] addresses HLA-DR DRB1*0101 (DR1) (Homo sapiens, UniProt P01903+P01911, A100R/D57E/F55L/F60I/F76Y/I96L/L162R/M171V/P40L/Q125E/R42F/V115G/Y59C). As to conditions: DRB1 *0101.

No end group written: not given here. A value given as a limit tells only on which side of the number the result lay.

With `CC[C@H](C)[C@H](NC(=O)[C@H](CO)NC(=O)[C@@H](NC(=O)CNC(=O)[C@H](CCC(=O)O)NC(=O)[C@@H]1CCCN1)C(C)C)C(=O)N[C@@H](Cc1c[nH]c2ccccc12)C(=O)N[C@@H](CC(N)=O)C(=O)N1CCC[C@H]1C(=O)N[C@H](C(=O)N[C@@H](CC(C)C)C(=O)N[C@@H](CC(C)C)C(=O)N[C@@H](Cc1c[nH]c2ccccc12)C(=O)N[C@@H](CCC(N)=O)C(=O)N1CCC[C@H]1C(=O)O)[C@@H](C)CC`, the IC50 in [1] amounted to 0.0072 µM; in assay [2] it was 15 µM; in [3] it was 1.78 µM; in assay [4] it was 4.62 µM; in assay [5], 30.9 µM; in [6], 22.2 µM. In addition, the IC50 in assay [7] was 103 µM; in [8], 28.6 µM; in [9], 0.107 µM.

Consider NMSLLKHQSLRPDED [NMSLLKHQSLRPDED], for which the IC50 in [10] is over 35 µM; in [1] it was over 30.3 µM; in assay [3] it was over 40 µM; in assay [4] it was over 14.9 µM; in [5], 25.8 µM; in assay [11], 3.13 µM. Further, the IC50 in [6] is over 100 µM; in [7] it was 96.8 µM; in assay [8], 26.5 µM.

Consider `CSCC[C@H](NC(=O)[C@H](CCC(=O)O)NC(=O)[C@H](CCC(N)=O)NC(=O)[C@@H]1CCCN1)C(=O)N[C@@H](CCCCN)C(=O)N[C@H](C(=O)N[C@@H](Cc1ccc(O)cc1)C(=O)N[C@@H](CO)C(=O)N[C@H](C(=O)N[C@@H](CO)C(=O)N[C@@H](Cc1ccccc1)C(=O)N[C@@H](CC(=O)O)C(=O)N[C@@H](CO)C(=O)N[C@@H](CC(C)C)C(=O)N[C@@H](Cc1ccccc1)C(=O)O)C(C)C)[C@@H](C)O`, for which the IC50 in [10] was 24.7 µM; in assay [1], 0.919 µM; in assay [3], 3.02 µM; in [4] it was 14.6 µM; in [5], over 50 µM; in [11], 15.1 µM. The IC50 is at least 100 µM in assay [6], 1.98 µM in [7], over 98 µM in assay [8] and 0.579 µM in assay [9].

Regarding `CC[C@H](C)[C@H](NC(=O)[C@H](CO)NC(=O)[C@H](CO)NC(=O)[C@H](CC(=O)O)NC(=O)[C@H](C)NC(=O)[C@H](CC(N)=O)NC(=O)[C@@H](NC(=O)[C@H](Cc1ccc(O)cc1)NC(=O)[C@H](C)NC(=O)[C@@H](NC(=O)CN)C(C)C)[C@@H](C)CC)C(=O)N[C@@H](CCC(=O)O)C(=O)NCC(=O)N[C@@H](CC(N)=O)C(=O)N[C@@H](Cc1ccc(O)cc1)C(=O)O`, the IC50 was 7.61 µM in [1]; 6.24 µM in assay [2]; 0.146 µM in [3]; 1.42 µM in [4]; over 40 µM in assay [5]; 66.7 µM in [6]. Besides, the half-inhibitory concentration (IC50) turned out to be 3.05 µM in [7], 23.4 µM in assay [8] and 0.477 µM in [9].

Take `CC[C@H](C)[C@H](NC(=O)[C@@H]1CCCN1C(=O)[C@H](Cc1c[nH]cn1)NC(=O)[C@@H](NC(=O)[C@@H]1CCCN1C(=O)[C@@H](NC(=O)[C@H](CO)NC(=O)[C@@H]1CCCN1C(=O)[C@H](CC(C)C)NC(=O)CNC(=O)[C@@H](NC(=O)[C@H](C)NC(=O)[C@H](CCC(=O)O)NC(=O)[C@H](C)N)C(C)C)[C@@H](C)CC)C(C)C)C(=O)NCC(=O)O`: the IC50 in assay [10] was 5.46 µM; in assay [1], 0.056 µM; in assay [2] it was 2.02 µM; in assay [3] it was 9.92 µM; in assay [4], over 11.8 µM; in [5], over 66.7 µM. Further, the IC50 in assay [11] was 0.0054 µM; in assay [6], 69.3 µM; in [7], 23.1 µM; in [8] it was over 490 µM.

With `CC(C)C[C@H](NC(=O)[C@H](CCC(N)=O)NC(=O)[C@H](C)NC(=O)[C@H](CC(N)=O)NC(=O)[C@H](CCCCN)NC(=O)[C@@H](NC(=O)[C@H](CCCCN)NC(=O)[C@H](CC(N)=O)NC(=O)CN)C(C)C)C(=O)N[C@@H](C)C(=O)NCC(=O)N[C@@H](C)C(=O)N[C@@H](CCCCN)C(=O)NCC(=O)N[C@H](C(=O)O)C(C)C`, the IC50 is over 35 µM in assay [10]; over 45.5 µM in [1]; over 83.3 µM in [2]; over 12.5 µM in [4]; over 66.7 µM in assay [5]; 0.677 µM in [11]. Also, the results for the IC50 in [6], in assay [7] and in [8] were 1.22 µM, 7.88 µM and 28.9 µM, respectively.

Take TNKFSGYPLYHSVYE: the IC50 was over 35 µM in assay [10]; 0.489 µM in [1]; 30.9 µM in [2]; 5.52 µM in [3]; over 21.9 µM in assay [4]; 33.3 µM in assay [5]. Besides, the IC50 in assay [11] was determined as 3.4 µM; in assay [6], 2.94 µM; in assay [7], 0.741 µM; in [8] it was 0.614 µM.

Take `CC[C@H](C)[C@H](NC(=O)[C@H](CO)NC(=O)[C@H](CC(N)=O)NC(=O)[C@H](C)NC(=O)[C@H](CC(C)C)NC(=O)[C@H](CCC(=O)O)NC(=O)[C@H](Cc1ccccc1)NC(=O)[C@@H](N)C(C)C)C(=O)N[C@H](C(=O)N[C@@H](CC(C)C)C(=O)N1CCC[C@H]1C(=O)N[C@@H](Cc1ccccc1)C(=O)N[C@@H](CC(=O)O)C(=O)N[C@@H](CS)C(=O)N[C@@H](CCCNC(=N)N)C(=O)O)C(C)C`: the IC50 in [10] worked out at 0.024 µM; in assay [1], 0.477 µM; in assay [2], 0.039 µM; in assay [3], 0.999 µM; in assay [4] it was 0.128 µM; in [5], 11.8 µM. Also, the IC50 worked out at 0.019 µM in [11], 0.05 µM in [7] and 36.1 µM in [8].

Regarding LSGLHGQDLFGIWSK, the IC50 in assay [10] was over 35 µM; in assay [1] it was 32.2 µM; in [2] it was over 35.7 µM; in assay [3], over 26.7 µM; in assay [4] it was over 8.83 µM; in [5], 30.2 µM. The IC50 in assay [11] is 0.148 µM; in assay [6], 81.7 µM; in assay [7], over 125 µM; in [8], over 81.7 µM.

With RVPVSHSFPHPLYNM, the IC50 in [10] is 0.377 µM; in assay [1], 5.52 µM; in assay [3] it was over 16 µM; in [4] it was over 14.9 µM; in assay [5] it was over 200 µM; in [11] it was 0.067 µM. For the same compound, the IC50 in assay [7] turned out to be 0.097 µM; in assay [8] it was 100 µM; in [9], 9.21 µM.

Turning to `CC[C@H](C)[C@H](NC(=O)[C@@H](N)CC(C)C)C(=O)N[C@@H](CCSC)C(=O)N[C@@H](Cc1ccc(O)cc1)C(=O)N[C@@H](CO)C(=O)N[C@@H](C)C(=O)N[C@@H](Cc1c[nH]cn1)C(=O)N[C@@H](CC(=O)O)C(=O)N[C@H](C(=O)N[C@H](C(=O)N[C@H](C(=O)N[C@@H](CO)C(=O)NCC(=O)N[C@@H](CC(C)C)C(=O)N[C@@H](CCC(N)=O)C(=O)O)C(C)C)[C@@H](C)O)[C@@H](C)O`, the IC50 in [10] was 1.75 µM; in [1], 0.184 µM; in assay [3] it was 0.024 µM; in assay [4] it was 6.83 µM; in assay [5], over 66.7 µM; in assay [11], 4.5 µM. Also, the IC50 in assay [6] was over 100 µM; in assay [7], 0.813 µM; in [8] it was 24.8 µM; in assay [9], 4.38 µM.
